Source: PubChem BioAssay AID1963981 (Molecular Pharmacology Branch, DTP, NCI, 2024)
pIC50: −log10 of the molar value.

System: 354836-022-R-J1-PDC multicell spheroid viability
Assay: Anticancer human tumor 354836-022-R-J1-PDC patient-derived head and neck squamous cell carcinoma cell line growth inhibition [PI3K]
Settings: for pIC50: curve of first compound; for viability, T/C: stronger effect = lower value; active = viability on the fitted dose curve at most 10% of control; inactive = the rest
Method in brief: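 Targeted small molecules plus PI3K inhibitors, half-log dose series from Cmax (default top 10 microM), were applied to heterotypic spheroids of cancer cells with HUVEC and MSCs. Viability indicated growth inhibition.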
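Note: spheroids exposed to agents for seven days before the viability read.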

C#Cc1c(F)ccc2cc(O)cc(-c3ncc4c(N5CC6CCC(C5)N6)nc(OCC56CCCN5CC(F)C6)nc4c3F)c12 (configuration not stated) + CC(Nc1ncnc2nc[nH]c12)c1cc2cccc(Cl)c2c(=O)n1-c1ccccc1
< 5.00: pIC50 (second compound 0.0316 µM) | pIC50 (second compound 0.1 µM) | pIC50 (second compound 0.316 µM) | pIC50 (second compound 1 µM) | pIC50 (second compound 3.16 µM) | pIC50 (second compound 10 µM)
inactive: viability, T/C (second compound 0.0316 µM, first compound 0.0316 µM) 94.8% | viability, T/C (second compound 0.0316 µM, first compound 0.1 µM) 85% | viability, T/C (second compound 0.0316 µM, first compound 0.316 µM) 88.6% | viability, T/C (second compound 0.0316 µM, first compound 1 µM) 105% | viability, T/C (second compound 0.0316 µM, first compound 3.16 µM) 85.5% | viability, T/C (second compound 0.0316 µM, first compound 10 µM) 96.4% | viability, T/C (second compound 0.1 µM, first compound 0.0316 µM) 84.9% | viability, T/C (second compound 0.1 µM, first compound 0.1 µM) 105% | viability, T/C (second compound 0.1 µM, first compound 0.316 µM) 96.4% | viability, T/C (second compound 0.1 µM, first compound 1 µM) 96.2% | viability, T/C (second compound 0.1 µM, first compound 3.16 µM) 110% | viability, T/C (second compound 0.1 µM, first compound 10 µM) 102% | viability, T/C (second compound 0.316 µM, first compound 0.0316 µM) 85.4% | viability, T/C (second compound 0.316 µM, first compound 0.1 µM) 110% | viability, T/C (second compound 0.316 µM, first compound 0.316 µM) 103% | viability, T/C (second compound 0.316 µM, first compound 1 µM) 108% | viability, T/C (second compound 0.316 µM, first compound 3.16 µM) 98.3% | viability, T/C (second compound 0.316 µM, first compound 10 µM) 89.9% | viability, T/C (second compound 1 µM, first compound 0.0316 µM) 91.1% | viability, T/C (second compound 1 µM, first compound 0.1 µM) 86.9% | viability, T/C (second compound 1 µM, first compound 0.316 µM) 100% | viability, T/C (second compound 1 µM, first compound 1 µM) 92.3% | viability, T/C (second compound 1 µM, first compound 3.16 µM) 96.4% | viability, T/C (second compound 1 µM, first compound 10 µM) 74.9% | viability, T/C (second compound 3.16 µM, first compound 0.0316 µM) 95.4% | viability, T/C (second compound 3.16 µM, first compound 0.1 µM) 105% | viability, T/C (second compound 3.16 µM, first compound 0.316 µM) 96.3% | viability, T/C (second compound 3.16 µM, first compound 1 µM) 110% | viability, T/C (second compound 3.16 µM, first compound 3.16 µM) 99% | viability, T/C (second compound 3.16 µM, first compound 10 µM) 70% | viability, T/C (second compound 10 µM, first compound 0.0316 µM) 95.3% | viability, T/C (second compound 10 µM, first compound 0.1 µM) 82.5% | viability, T/C (second compound 10 µM, first compound 0.316 µM) 84.5% | viability, T/C (second compound 10 µM, first compound 1 µM) 80.8% | viability, T/C (second compound 10 µM, first compound 3.16 µM) 78.4% | viability, T/C (second compound 10 µM, first compound 10 µM) 75.1%
